Data on one compound can be found in BindingDB's records for patent US20250188075 (The Broad Institute, 2025).

The target of experiment [1] is T1, Casein kinase I isoform alpha (Homo sapiens, UniProt P48729). Kind of experiment: CSNK1A1-Inhibitory Activity Assay (High ATP). On the procedure: For the assay 50 nl of a 100 fold concentrated solution of the test compound in DMSO was pipetted into a white low volume 384-well microtiter plate (Greiner Bio-One, Frickenhausen, Germany), 2 μL of a solution of CSNK1A1 in aqueous assay buffer [50 mM HEPES pH 7.5, 10% (v/v) glycerol, 10 mM MgCl2, 50 mM NaCl, 1 mM dithiothreitol, 0.01% (w/v) bovine serum albumin, 0.01% (v/v) Triton X-100] were added and the mixture was incubated for 15 min at 22° C. to allow pre-binding of the test compounds to the enzyme before the start of the kinase reaction. Then the kinase reaction was started by the addition of 3 μL of a solution of ATP (1.67 mM=>final conc. in the 5 μL assay volume is 1 mM) and peptide substrate (167 μM=>final conc. in the 5 μL assay volume is 100 μM) in assay buffer and the resulting mixture was incubated for a reaction time of 30 min at 22° C. The concentration of CSNK1A1 was adjusted depending of the activity of the enzyme lot and was chosen appropriate to have the assay in the linear range, a typical concentration is about 0.4 ng/μL. […] Subsequently 2.5 μL of the “kinase detection reagent” (1.2 fold more concentrated than recommended by the producer) were added, the resulting mixture was incubated at 22° C. for 1 h and then the luminescence measured with a suitable measurement instrument (e.g. Viewlux™ from Perkin-Elmer). […]
T1 sequence (P48729 whole entry, canonical isoform): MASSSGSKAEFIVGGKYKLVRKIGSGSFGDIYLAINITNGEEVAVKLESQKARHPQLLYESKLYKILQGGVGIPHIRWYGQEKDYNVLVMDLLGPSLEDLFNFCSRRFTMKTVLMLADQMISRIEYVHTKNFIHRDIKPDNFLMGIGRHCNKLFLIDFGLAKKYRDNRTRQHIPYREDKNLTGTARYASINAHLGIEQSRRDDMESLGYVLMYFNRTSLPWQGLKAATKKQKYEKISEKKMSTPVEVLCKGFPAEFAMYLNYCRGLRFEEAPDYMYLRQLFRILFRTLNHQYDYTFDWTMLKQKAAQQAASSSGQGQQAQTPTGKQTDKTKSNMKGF

Experiment [2] addresses T1, Casein kinase I isoform alpha. Briefly: CSNK1A1-Inhibitory Activity Assay (Low ATP). On the procedure: For the assay 50 nl of a 100-fold concentrated solution of the test compound in DMSO was pipetted into a white 1536-well microtiter plate (Greiner Bio-One, Frickenhausen, Germany), 2 μL of a solution of CSNK1A1 in aqueous assay buffer [50 mM HEPES pH 7.5, 10% (v/v) glycerol, 10 mM MgCl2, 50 mM NaCl, 1 mM dithiothreitol, 0.01% (w/v) bovine serum albumin, 0.01% (v/v) Triton X-100] were added and the mixture was incubated for 15 min at 22° C. to allow pre-binding of the test compounds to the enzyme before the start of the kinase reaction. Then the kinase reaction was started by the addition of 3 μL of a solution of ATP (1.67 μM=>final conc. in the 5 μL assay volume is 1 μM) and peptide substrate (50 μM=>final conc. in the 5 μL assay volume is 30 μM) in assay buffer and the resulting mixture was incubated for a reaction time of 30 min at 22° C. The concentration of CSNK1A1 was adjusted depending of the activity of the enzyme lot and was chosen appropriate to have the assay in the linear range, a typical concentrations are about 0.0375 ng/μL. […] Subsequently 2.5 μL of the “kinase detection reagent” (1.2 fold more concentrated than recommended by the producer) were added, the resulting mixture was incubated at 22° C. for 1 h and then the luminescence measured with a suitable measurement instrument (e.g. Viewlux™ from Perkin-Elmer). […]

Experiment [3] concerns the target Casein kinase I isoform delta (Homo sapiens, UniProt P48730). Briefly: CSNK1D-Inhibitory Activity Assay. How it is done:
For the assay 50 nl of a 100-fold concentrated solution of the test compound in DMSO was pipetted into a white 1536-well microtiter plate (Greiner Bio-One, Frickenhausen, Germany), 2 μL of a solution of CSNK1D in aqueous assay buffer [50 mM HEPES pH 7.5, 10% (v/v) glycerol, 10 mM MgCl2, 50 mM NaCl, 1 mM dithiothreitol, 0.01% (w/v) bovine serum albumin, 0.01% (v/v) Triton X-100] were added and the mixture was incubated for 15 min at 22° C. to allow pre-binding of the test compounds to the enzyme before the start of the kinase reaction. Then the kinase reaction was started by the addition of 3 μL of a solution of ATP (1.67 μM=>final conc. in the 5 μL assay volume is 1 μM) and peptide substrate (50 μM=>final conc. in the 5 μL assay volume is 30 μM) in assay buffer and the resulting mixture was incubated for a reaction time of 30 min at 22° C. The concentration of CSNK1D was adjusted depending of the activity of the enzyme lot and was chosen appropriate to have the assay in the linear range, a typical concentration is about 0.5 ng/μL. […] Subsequently 2.5 μL of the “kinase detection reagent” (1.2 fold more concentrated than recommended by the producer) were added, the resulting mixture was incubated at 22° C. for 1 h and then the luminescence measured with a suitable measurement instrument (e.g. Viewlux™ from Perkin-Elmer). […]

Experiment [4] concerns the target Casein kinase I isoform gamma-3 (Homo sapiens, UniProt Q9Y6M4). Briefly: CSNK1G3-Inhibitory Activity Assay. How it is done:
For the assay 50 nl of a 100 fold concentrated solution of the test compound in DMSO was pipetted into a white 1536-well microtiter plate (Greiner Bio-One, Frickenhausen, Germany), 2 μL of a solution of CSNK1G3 in aqueous assay buffer [50 mM HEPES pH 7.5, 10% (v/v) glycerol, 10 mM MgCl2, 50 mM NaCl, 1 mM dithiothreitol, 0.01% (w/v) bovine serum albumin, 0.01% (v/v) Triton X-100] were added and the mixture was incubated for 15 min at 22° C. to allow pre-binding of the test compounds to the enzyme before the start of the kinase reaction. Then the kinase reaction was started by the addition of 3 μL of a solution of ATP ([…]) and peptide substrate (50 μM=>final conc. in the 5 μL assay volume is 30 μM) in assay buffer and the resulting mixture was incubated for a reaction time of 30 min at 22° C. The concentration of CSNK1G3 was adjusted depending of the activity of the enzyme lot and was chosen appropriate to have the assay in the linear range, a typical concentration is about 0.06 ng/μL. […] Subsequently 2.5 μL of the “kinase detection reagent” (1.2 fold more concentrated than recommended by the producer) were added, the resulting mixture was incubated at 22° C. for 1 h and then the luminescence measured with a suitable measurement instrument (e.g. Viewlux™ from Perkin-Elmer). […]

pIC50: −log10 of the molar value.

Casein kinase I isoform delta, sequence (P48730 whole entry, canonical isoform): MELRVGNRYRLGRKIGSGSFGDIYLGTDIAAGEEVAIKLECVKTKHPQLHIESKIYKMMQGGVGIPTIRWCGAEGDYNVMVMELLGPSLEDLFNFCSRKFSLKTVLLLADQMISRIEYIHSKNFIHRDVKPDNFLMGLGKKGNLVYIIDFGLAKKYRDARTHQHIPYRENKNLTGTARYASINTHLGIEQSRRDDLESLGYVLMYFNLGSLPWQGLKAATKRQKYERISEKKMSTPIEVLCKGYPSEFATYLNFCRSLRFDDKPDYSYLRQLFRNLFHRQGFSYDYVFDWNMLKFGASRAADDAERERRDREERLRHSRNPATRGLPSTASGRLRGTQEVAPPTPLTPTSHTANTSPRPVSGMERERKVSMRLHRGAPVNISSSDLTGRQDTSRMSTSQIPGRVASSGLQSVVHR
Casein kinase I isoform gamma-3, sequence (Q9Y6M4 whole entry, canonical isoform): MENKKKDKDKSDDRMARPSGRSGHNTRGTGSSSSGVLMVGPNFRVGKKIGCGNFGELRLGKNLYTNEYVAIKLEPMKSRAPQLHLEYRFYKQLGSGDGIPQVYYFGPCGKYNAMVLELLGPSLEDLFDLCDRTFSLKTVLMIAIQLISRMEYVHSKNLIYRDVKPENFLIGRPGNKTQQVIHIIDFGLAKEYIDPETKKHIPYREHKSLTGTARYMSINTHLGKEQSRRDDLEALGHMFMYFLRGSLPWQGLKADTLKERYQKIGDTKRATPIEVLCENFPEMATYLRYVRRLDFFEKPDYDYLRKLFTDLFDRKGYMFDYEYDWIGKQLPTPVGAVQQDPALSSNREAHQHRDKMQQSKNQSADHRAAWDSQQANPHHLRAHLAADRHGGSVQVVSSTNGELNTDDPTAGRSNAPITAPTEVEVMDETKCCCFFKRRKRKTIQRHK

Usually pIC50 stands for −log10 of the IC50, conventionally taken in molar units. Higher therefore signals a low IC50. Take `O=C(Cc1cnco1)Nc1cc(-c2[nH]c3cccnc3c2-c2ccccn2)ccn1` [US20250188075, Example 4]: the pIC50 in experiment [1] was 7.33; in experiment [2] it was 8.74; in experiment [3], 8.28; in experiment [4] it was 7.30.
